From PubChem BioAssay AID328 (DTP/NCI, 2004)
Values joined by “and” are separate entries in the source; they are usually repeats but may differ in a detail not shown here. Identical values can stand only once. Toxic doses and inconclusive results are not listed.

System: BDF1 mice, P388 leukemia ip, median survival T/C
Test: NCI In Vivo Anticancer Drug Screen. Data for tumor model P388 Leukemia (intraperitoneal) in B6D2F1 (BDF1) mice
Settings: endpoint: median survival time, higher = longer survival
How it was run: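 Each value expresses how treatment altered survival: treated-mouse outcome over vehicle-mouse outcome, both groups bearing the transplanted tumour.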

[1] = dose: 100.0 mg/kg/injection, schedule: Q01DX009 (ip), vehicle: saline with Tween-80
[2] = dose: 200.0 mg/kg/injection, schedule: Q01DX009 (ip), vehicle: saline with Tween-80
[3] = dose: 100.0 mg/kg/injection, schedule: Q01DX009 (ip), vehicle: Klucel (hydroxypropylcellulose) (HPC)
[4] = dose: 200.0 mg/kg/injection, schedule: Q01DX009 (ip), vehicle: Klucel (hydroxypropylcellulose) (HPC)
[5] = dose: 100.0 mg/kg/injection, schedule: Q04DX003 (ip), vehicle: saline with Tween-80
[6] = dose: 200.0 mg/kg/injection, schedule: Q04DX003 (ip), vehicle: saline with Tween-80
[7] = dose: 400.0 mg/kg/injection, schedule: Q04DX003 (ip), vehicle: saline with Tween-80
[8] = dose: 100.0 mg/kg/injection, schedule: Q04DX003 (ip), vehicle: Klucel (hydroxypropylcellulose) (HPC)

SMILES: O=C1c2cccc(O)c2C(=O)c2c(O)cc(CO)cc21
- T/C (dose: 8.8 mg/kg/injection, schedule: Q01DX010 (ip), vehicle: other): 100 % of control
- T/C (dose: 10.0 mg/kg/injection, schedule: Q01DX010 (ip), vehicle: carboxymethylcellulose (CMC)): 122 % of control
- T/C (dose: 10.0 mg/kg/injection, schedule: Q01DX010 (ip), vehicle: other): 108 % of control
- T/C (dose: 13.0 mg/kg/injection, schedule: Q01DX010 (ip), vehicle: other): 111 % of control
- T/C (dose: 16.0 mg/kg/injection, schedule: Q01DX009 (ip), vehicle: gum acacia): 97 % of control
- T/C (dose: 20.0 mg/kg/injection, schedule: Q01DX009 (ip), vehicle: gum acacia): 106 % of control
- T/C (dose: 20.0 mg/kg/injection, schedule: Q01DX010 (ip), vehicle: carboxymethylcellulose (CMC)): 94 % of control
- T/C (dose: 20.0 mg/kg/injection, schedule: Q01DX010 (ip), vehicle: other): 154 % of control
- T/C (dose: 25.0 mg/kg/injection, schedule: Q01DX009 (ip), vehicle: gum acacia): 97 % of control
- T/C (dose: 40.0 mg/kg/injection, schedule: Q01DX010 (ip), vehicle: carboxymethylcellulose (CMC)): 116 % of control
- T/C (dose: 40.0 mg/kg/injection, schedule: Q01DX010 (ip), vehicle: other): 120 % of control
- T/C (dose: 80.0 mg/kg/injection, schedule: Q01DX010 (ip), vehicle: carboxymethylcellulose (CMC)): 122 % of control

SMILES: O=C1NC(O)c2cc(CO)ccc2O1 (configuration not stated)
- T/C (dose: 50.0 mg/kg/injection, schedule: Q01DX005 (ip), vehicle: saline with Tween-80): 100 % of control
- T/C (dose: 100.0 mg/kg/injection, schedule: Q01DX005 (ip), vehicle: saline with Tween-80): 104 % of control
- T/C (dose: 200.0 mg/kg/injection, schedule: Q01DX005 (ip), vehicle: saline with Tween-80): 109 % of control

SMILES: CNC(=O)c1ccccc1Sc1ccccc1
- T/C (dose: 50.0 mg/kg/injection, schedule: Q01DX009 (ip), vehicle: saline with Tween-80): 104 % of control
- T/C [1]: 98 % of control
- T/C [2]: 106 % of control

SMILES: CC[C@H](CC[C@@H](C)[C@H]1CC[C@H]2[C@@H]3CC=C4C[C@@H](OC(=O)CSC(CC(=O)O)C(=O)O)CC[C@]4(C)[C@H]3CC[C@]12C)C(C)C (some centres not stated)
- T/C [3]: 109 % of control
- T/C [4]: 104 % of control

SMILES: O=C1C=C(Nc2ccc(F)cc2)C(Nc2ccc(F)cc2)=CC1=O
- T/C (dose: 87.5 mg/kg/injection, schedule: Q01DX009 (ip), vehicle: saline with Tween-80): 87 % of control
- T/C (dose: 350.0 mg/kg/injection, schedule: Q01DX009 (ip), vehicle: saline with Tween-80): 91 % of control

SMILES: CCOn1nnc2cc(Cl)ccc21
- T/C [5]: 113 % of control
- T/C [6]: 113 % of control
- T/C [7]: 106 % of control

SMILES: CCCCCCCCCCCCOCCCCCCCCCCCC
- T/C (dose: 100.0 mg/kg/injection, schedule: Q01DX009 (sc), vehicle: olive oil, sesame oil, peanut oil): 100 % of control
- T/C (dose: 100.0 mg/kg/injection, schedule: Q04DX003 (sc), vehicle: olive oil, sesame oil, peanut oil): 109 % of control
- T/C (dose: 200.0 mg/kg/injection, schedule: Q01DX009 (sc), vehicle: olive oil, sesame oil, peanut oil): 100 % of control
- T/C (dose: 200.0 mg/kg/injection, schedule: Q04DX003 (sc), vehicle: olive oil, sesame oil, peanut oil): 100 % of control
- T/C (dose: 400.0 mg/kg/injection, schedule: Q01DX009 (sc), vehicle: olive oil, sesame oil, peanut oil): 95 % of control
- T/C (dose: 400.0 mg/kg/injection, schedule: Q04DX003 (sc), vehicle: olive oil, sesame oil, peanut oil): 100 % of control

SMILES: CC(=O)N(C)C
- T/C (dose: 300.0 mg/kg/injection, schedule: Q01DX010 (ip), vehicle: saline): 104 % of control
- T/C (dose: 600.0 mg/kg/injection, schedule: Q01DX010 (ip), vehicle: saline): 104 % of control
- T/C (dose: 1200.0 mg/kg/injection, schedule: Q01DX010 (ip), vehicle: saline): 119 % of control
- T/C (dose: 2400.0 mg/kg/injection, schedule: Q01DX010 (ip), vehicle: saline): 119 % of control
- T/C (dose: 3600.0 mg/kg/injection, schedule: Q01DX010 (ip), vehicle: saline): 168 % of control

SMILES: COc1cc2cc[n+]3c(C)c4ccc(OC)c(OC)c4cc3c2cc1OC (tested in a mixture with another compound)
- T/C (dose: 2.0 mg/kg/injection, schedule: Q01DX009 (ip), vehicle: saline): 122 % of control
- T/C (dose: 5.0 mg/kg/injection, schedule: Q01DX009 (ip), vehicle: saline): 117 % of control
- T/C (dose: 20.0 mg/kg/injection, schedule: Q01DX009 (ip), vehicle: saline): 150 % of control and 192 % of control
- T/C (dose: 40.0 mg/kg/injection, schedule: Q01DX009 (ip), vehicle: saline): 168 % of control and 185 % of control

SMILES: NCCCCNC(=O)c1csc(-c2csc(CCNC(=O)c3ccccc3)n2)n1
- T/C (dose: 8.0 mg/kg/injection, schedule: Q01DX009 (ip), vehicle: saline): 100 % of control
- T/C (dose: 16.0 mg/kg/injection, schedule: Q01DX009 (ip), vehicle: saline): 100 % of control
- T/C (dose: 32.0 mg/kg/injection, schedule: Q01DX009 (ip), vehicle: saline): 100 % of control
- T/C (dose: 64.0 mg/kg/injection, schedule: Q01DX009 (ip), vehicle: saline): 110 % of control

SMILES: NC(=S)Nc1cccc(Cl)c1
- T/C (dose: 25.0 mg/kg/injection, schedule: Q04DX003 (ip), vehicle: Klucel (hydroxypropylcellulose) (HPC)): 118 % of control
- T/C (dose: 50.0 mg/kg/injection, schedule: Q04DX003 (ip), vehicle: Klucel (hydroxypropylcellulose) (HPC)): 104 % of control
- T/C [8]: 104 % of control

SMILES: BrCC[N+]12CC[N+](CCBr)(CC1)C2
- T/C (dose: 12.5 mg/kg/injection, schedule: Q01DX009 (ip), vehicle: saline with Tween-80): 112 % of control
- T/C (dose: 25.0 mg/kg/injection, schedule: Q01DX009 (ip), vehicle: saline with Tween-80): 105 % of control
- T/C (dose: 25.0 mg/kg/injection, schedule: Q04DX003 (ip), vehicle: water): 110 % of control
- T/C (dose: 50.0 mg/kg/injection, schedule: Q04DX003 (ip), vehicle: water): 116 % of control
- T/C (dose: 400.0 mg/kg/injection, schedule: Q04DX003 (ip), vehicle: water): 172 % of control

SMILES: CC(C)(C1c2ccccc2C(=NO)c2ccccc21)[N+](=O)[O-] (configuration not stated)
- T/C [1]: 109 % of control
- T/C [5]: 91 % of control
- T/C [2]: 90 % of control
- T/C [6]: 100 % of control
- T/C (dose: 400.0 mg/kg/injection, schedule: Q01DX009 (ip), vehicle: saline with Tween-80): 100 % of control
- T/C [7]: 91 % of control

SMILES: COC(=O)C(C)CN1CCCCCC1 (configuration not stated)
- T/C (dose: 50.0 mg/kg/injection, schedule: Q01DX009 (ip), vehicle: saline): 109 % of control
- T/C (dose: 100.0 mg/kg/injection, schedule: Q01DX009 (ip), vehicle: saline): 90 % of control
- T/C (dose: 200.0 mg/kg/injection, schedule: Q01DX009 (ip), vehicle: saline): 109 % of control

SMILES: CCOc1cc(-c2nccc3cc(OC)c(OC)cc23)cc(OCC)c1OCC
- T/C [3]: 110 % of control
- T/C [8]: 100 % of control
- T/C [4]: 110 % of control
- T/C (dose: 200.0 mg/kg/injection, schedule: Q04DX003 (ip), vehicle: Klucel (hydroxypropylcellulose) (HPC)): 100 % of control
- T/C (dose: 400.0 mg/kg/injection, schedule: Q01DX009 (ip), vehicle: Klucel (hydroxypropylcellulose) (HPC)): 110 % of control
- T/C (dose: 400.0 mg/kg/injection, schedule: Q04DX003 (ip), vehicle: Klucel (hydroxypropylcellulose) (HPC)): 100 % of control
